BindingDB's records for doi:10.1021/jm00001a008 (R. W. Johnson Pharmaceutical Research Institute, 1995)
Counter-ions that a name gives are not always drawn.

Key:
[1] = molecular target: T1, Integrin alpha-IIb/beta-3 (Homo sapiens, UniProt P08514+P05106); assay: Inhibition of arachidonic acid-induced platelet aggregation
[2] = molecular target: T1, Integrin alpha-IIb/beta-3; assay: Inhibition of collagen-induced platelet aggregation
[3] = molecular target: T1, Integrin alpha-IIb/beta-3; assay: Inhibition of thrombin-induced platelet aggregation at 50 uM

T1 sequence (P05106 27-788 limits assumed): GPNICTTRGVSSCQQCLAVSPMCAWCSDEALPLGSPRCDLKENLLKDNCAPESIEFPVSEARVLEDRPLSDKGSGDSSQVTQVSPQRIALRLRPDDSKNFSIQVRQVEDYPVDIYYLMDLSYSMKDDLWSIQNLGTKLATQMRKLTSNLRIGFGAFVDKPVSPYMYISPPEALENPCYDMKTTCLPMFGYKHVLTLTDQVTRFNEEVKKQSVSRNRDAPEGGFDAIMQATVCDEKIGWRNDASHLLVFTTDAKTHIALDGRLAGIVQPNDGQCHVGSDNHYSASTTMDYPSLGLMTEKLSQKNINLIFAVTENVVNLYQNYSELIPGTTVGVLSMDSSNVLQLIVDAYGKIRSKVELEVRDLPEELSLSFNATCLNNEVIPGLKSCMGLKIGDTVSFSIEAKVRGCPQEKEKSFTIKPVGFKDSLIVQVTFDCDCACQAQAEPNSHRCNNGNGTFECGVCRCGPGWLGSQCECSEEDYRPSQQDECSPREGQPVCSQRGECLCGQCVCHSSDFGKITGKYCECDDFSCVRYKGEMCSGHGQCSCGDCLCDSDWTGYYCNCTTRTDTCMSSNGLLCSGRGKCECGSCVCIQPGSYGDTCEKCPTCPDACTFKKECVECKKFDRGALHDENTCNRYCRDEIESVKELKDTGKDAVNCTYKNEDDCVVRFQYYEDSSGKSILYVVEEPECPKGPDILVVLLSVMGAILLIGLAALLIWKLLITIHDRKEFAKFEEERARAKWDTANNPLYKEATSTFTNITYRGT
T1 sequence (P08514 32-887 limits assumed): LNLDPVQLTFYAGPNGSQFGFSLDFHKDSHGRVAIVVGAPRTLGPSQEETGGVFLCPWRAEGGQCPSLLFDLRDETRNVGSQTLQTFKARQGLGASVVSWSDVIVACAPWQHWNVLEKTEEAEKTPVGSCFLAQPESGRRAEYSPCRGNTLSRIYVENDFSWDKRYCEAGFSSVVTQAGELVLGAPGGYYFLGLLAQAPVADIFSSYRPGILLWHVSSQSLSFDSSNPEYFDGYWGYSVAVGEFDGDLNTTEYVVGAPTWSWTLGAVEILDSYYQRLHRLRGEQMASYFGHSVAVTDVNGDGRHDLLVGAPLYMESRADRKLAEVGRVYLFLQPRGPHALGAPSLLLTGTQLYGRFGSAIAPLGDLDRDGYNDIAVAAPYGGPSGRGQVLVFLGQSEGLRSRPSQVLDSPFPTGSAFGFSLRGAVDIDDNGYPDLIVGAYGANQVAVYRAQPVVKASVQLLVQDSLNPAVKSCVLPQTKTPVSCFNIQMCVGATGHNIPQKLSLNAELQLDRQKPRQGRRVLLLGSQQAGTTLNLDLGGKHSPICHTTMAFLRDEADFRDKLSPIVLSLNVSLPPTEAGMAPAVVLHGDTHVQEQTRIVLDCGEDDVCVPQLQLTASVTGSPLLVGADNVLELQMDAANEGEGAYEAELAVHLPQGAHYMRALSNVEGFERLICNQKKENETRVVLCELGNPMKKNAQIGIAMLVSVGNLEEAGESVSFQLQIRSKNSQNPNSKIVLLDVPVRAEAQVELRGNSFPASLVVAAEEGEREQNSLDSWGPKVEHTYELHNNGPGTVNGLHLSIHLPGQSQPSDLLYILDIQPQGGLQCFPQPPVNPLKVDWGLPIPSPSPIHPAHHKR
T1 sequence (P08514 891-1039 limits assumed): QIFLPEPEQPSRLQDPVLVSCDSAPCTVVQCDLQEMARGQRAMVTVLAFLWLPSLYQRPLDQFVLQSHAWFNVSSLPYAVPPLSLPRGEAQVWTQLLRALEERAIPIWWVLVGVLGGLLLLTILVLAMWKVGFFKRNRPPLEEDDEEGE

| SMILES | IC50 [1] | IC50 [2] | IC50 [3] |
| --- | --- | --- | --- |
| CC(=O)Oc1ccccc1C(=O)O [2-(acetyloxy)benzoic acid] | 5 µM | > 100 µM | – |
| NCCNC(=O)c1cnn(-c2nc(-c3cccc(C(F)(F)F)c3)cs2)c1C(F)(F)F [5-Trifluoromethyl-1-[4-(3-trifluoromethyl-phenyl)-thiazol-2-yl]-1H-pyrazole-4-carboxylic acid (2-amino-ethyl)-amide; hydrochloride] | – | – | 11.2 µM |
| NCCCNC(=O)c1cnn(-c2nc(-c3cccc(C(F)(F)F)c3)cs2)c1C(F)(F)F [5-Trifluoromethyl-1-[4-(3-trifluoromethyl-phenyl)-thiazol-2-yl]-1H-pyrazole-4-carboxylic acid (3-amino-propyl)-amide; hydrochloride] | 3.7 µM | 3 µM | – |
| O=C(NCCCN1CCCCC1)c1cnn(-c2nc(-c3cccc(C(F)(F)F)c3)cs2)c1C(F)(F)F [5-Trifluoromethyl-1-[4-(3-trifluoromethyl-phenyl)-thiazol-2-yl]-1H-pyrazole-4-carboxylic acid (3-piperidin-1-yl-propyl)-amide] | 12 µM | 3 µM | – |
| CCCNCCCNC(=O)c1cnn(-c2nc(-c3cccc(C(F)(F)F)c3)cs2)c1C(F)(F)F [5-Trifluoromethyl-1-[4-(3-trifluoromethyl-phenyl)-thiazol-2-yl]-1H-pyrazole-4-carboxylic acid (3-propylamino-propyl)-amide] | 4.1 µM | 3.5 µM | – |
| NCCCCNC(=O)c1cnn(-c2nc(-c3cccc(C(F)(F)F)c3)cs2)c1C(F)(F)F [5-Trifluoromethyl-1-[4-(3-trifluoromethyl-phenyl)-thiazol-2-yl]-1H-pyrazole-4-carboxylic acid (4-amino-butyl)-amide; hydrochloride] | 4.5 µM | 0.1 µM | – |

The remaining molecules from weak to strong by IC50 [1], led by results:

| IC50 [1] | IC50 [2] | IC50 [3] | SMILES |
| --- | --- | --- | --- |
| 2.4 µM | – | – | COc1ccc(CCNC(=O)C(CC(=O)O)NC(=O)CCCCCCCNC(=N)N)cc1 (stereo unspecified) [SC-47643] |
| 2.1 µM | 3.5 µM | – | CCN(CC)CCCNC(=O)c1cnn(-c2nc(-c3cccc(C(F)(F)F)c3)c(Br)s2)c1C(F)(F)F [1-[5-Bromo-4-(3-trifluoromethyl-phenyl)-thiazol-2-yl]-5-trifluoromethyl-1H-pyrazole-4-carboxylic acid (3-diethylamino-propyl)-amide] |
| 0.4 µM | 2.5 µM | – | CCN(CC)CCCNC(=O)c1cnn(-c2nc(-c3cccc(C(F)(F)F)c3)cs2)c1C(F)(F)F [5-Trifluoromethyl-1-[4-(3-trifluoromethyl-phenyl)-thiazol-2-yl]-1H-pyrazole-4-carboxylic acid (3-diethylamino-propyl)-amide] |
